In publication PMC12586182 (Frontiers in Oncology, 2025):

What was measured:
Experiment in all cases: Kinase panel profiling at 1 µmol/L (mobility shift assay, Carna)
[1] = target: T1, EPHB3 (Homo sapiens, UniProt P54753); assay type: biochemical; conditions: 1 µmol/L of BTK inhibitor
T1 construct: purchased Carna Biosciences
T1 sequence (P54753 34-998): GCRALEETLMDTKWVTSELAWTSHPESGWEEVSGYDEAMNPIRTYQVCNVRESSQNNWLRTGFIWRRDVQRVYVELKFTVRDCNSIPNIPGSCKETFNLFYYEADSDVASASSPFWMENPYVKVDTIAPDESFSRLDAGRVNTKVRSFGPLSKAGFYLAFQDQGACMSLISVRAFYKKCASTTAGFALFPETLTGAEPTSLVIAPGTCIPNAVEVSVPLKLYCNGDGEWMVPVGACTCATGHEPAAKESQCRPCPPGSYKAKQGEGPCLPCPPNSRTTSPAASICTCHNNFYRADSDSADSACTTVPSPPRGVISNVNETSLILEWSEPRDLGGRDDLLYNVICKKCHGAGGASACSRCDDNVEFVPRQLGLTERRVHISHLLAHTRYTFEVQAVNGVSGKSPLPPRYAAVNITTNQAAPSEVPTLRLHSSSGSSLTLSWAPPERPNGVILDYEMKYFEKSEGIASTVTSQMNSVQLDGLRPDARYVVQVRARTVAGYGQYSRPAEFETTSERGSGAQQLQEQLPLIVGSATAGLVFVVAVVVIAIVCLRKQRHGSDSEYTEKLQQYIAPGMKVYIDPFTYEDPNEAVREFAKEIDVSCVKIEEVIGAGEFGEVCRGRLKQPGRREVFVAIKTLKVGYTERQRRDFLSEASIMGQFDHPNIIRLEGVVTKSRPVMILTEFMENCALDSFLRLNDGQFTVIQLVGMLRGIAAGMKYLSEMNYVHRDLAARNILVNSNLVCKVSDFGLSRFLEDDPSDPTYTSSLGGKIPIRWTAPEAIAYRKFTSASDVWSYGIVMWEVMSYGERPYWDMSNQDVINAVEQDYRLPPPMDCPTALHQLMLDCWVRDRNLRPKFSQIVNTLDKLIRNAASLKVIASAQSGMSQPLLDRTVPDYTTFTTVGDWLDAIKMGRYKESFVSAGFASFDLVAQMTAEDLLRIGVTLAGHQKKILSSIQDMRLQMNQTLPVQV

[2] = target: T2, ZAP70 (Homo sapiens, UniProt P43403); assay type: biochemical; conditions: 1 µmol/L of BTK inhibitor
T2 construct: purchased Carna Biosciences
T2 sequence (P43403 1-619): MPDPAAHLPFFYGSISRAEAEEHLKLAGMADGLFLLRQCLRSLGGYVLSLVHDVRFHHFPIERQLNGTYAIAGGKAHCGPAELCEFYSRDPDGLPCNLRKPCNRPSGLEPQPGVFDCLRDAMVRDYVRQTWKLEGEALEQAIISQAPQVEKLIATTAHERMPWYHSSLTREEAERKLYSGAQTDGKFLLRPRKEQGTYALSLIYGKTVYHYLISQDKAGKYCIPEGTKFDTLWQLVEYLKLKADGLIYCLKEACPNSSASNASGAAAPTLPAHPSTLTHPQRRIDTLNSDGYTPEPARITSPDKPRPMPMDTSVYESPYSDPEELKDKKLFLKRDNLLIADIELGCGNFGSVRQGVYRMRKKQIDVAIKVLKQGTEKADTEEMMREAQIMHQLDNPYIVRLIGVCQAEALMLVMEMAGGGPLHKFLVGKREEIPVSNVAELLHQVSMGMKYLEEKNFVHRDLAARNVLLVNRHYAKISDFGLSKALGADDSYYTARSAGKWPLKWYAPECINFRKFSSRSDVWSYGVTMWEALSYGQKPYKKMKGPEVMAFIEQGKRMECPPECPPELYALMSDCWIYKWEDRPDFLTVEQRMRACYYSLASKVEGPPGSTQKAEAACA

[3] = target: T3, AKT2 (Homo sapiens, UniProt P31751); assay type: biochemical; conditions: 1 µmol/L of BTK inhibitor
T3 construct: purchased Carna Biosciences
T3 sequence (P31751 whole entry): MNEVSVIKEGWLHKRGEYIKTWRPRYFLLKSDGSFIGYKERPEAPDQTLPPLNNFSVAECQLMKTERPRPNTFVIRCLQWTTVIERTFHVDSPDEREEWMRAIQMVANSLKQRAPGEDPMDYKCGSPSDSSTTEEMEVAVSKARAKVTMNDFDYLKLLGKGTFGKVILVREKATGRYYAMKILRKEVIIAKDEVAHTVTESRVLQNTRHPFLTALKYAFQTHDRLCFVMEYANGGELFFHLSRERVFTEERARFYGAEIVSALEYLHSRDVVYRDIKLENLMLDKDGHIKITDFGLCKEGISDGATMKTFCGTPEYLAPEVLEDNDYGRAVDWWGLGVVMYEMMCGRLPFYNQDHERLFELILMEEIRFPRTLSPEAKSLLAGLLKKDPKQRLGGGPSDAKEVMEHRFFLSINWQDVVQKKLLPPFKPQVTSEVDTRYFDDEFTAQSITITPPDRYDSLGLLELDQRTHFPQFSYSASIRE

[4] = target: T4, AMPKα2/β1/γ1 (Homo sapiens, UniProt P54646); assay type: biochemical; conditions: 1 µmol/L of BTK inhibitor
T4 construct: purchased Carna Biosciences
T4 sequence (P54646 whole entry): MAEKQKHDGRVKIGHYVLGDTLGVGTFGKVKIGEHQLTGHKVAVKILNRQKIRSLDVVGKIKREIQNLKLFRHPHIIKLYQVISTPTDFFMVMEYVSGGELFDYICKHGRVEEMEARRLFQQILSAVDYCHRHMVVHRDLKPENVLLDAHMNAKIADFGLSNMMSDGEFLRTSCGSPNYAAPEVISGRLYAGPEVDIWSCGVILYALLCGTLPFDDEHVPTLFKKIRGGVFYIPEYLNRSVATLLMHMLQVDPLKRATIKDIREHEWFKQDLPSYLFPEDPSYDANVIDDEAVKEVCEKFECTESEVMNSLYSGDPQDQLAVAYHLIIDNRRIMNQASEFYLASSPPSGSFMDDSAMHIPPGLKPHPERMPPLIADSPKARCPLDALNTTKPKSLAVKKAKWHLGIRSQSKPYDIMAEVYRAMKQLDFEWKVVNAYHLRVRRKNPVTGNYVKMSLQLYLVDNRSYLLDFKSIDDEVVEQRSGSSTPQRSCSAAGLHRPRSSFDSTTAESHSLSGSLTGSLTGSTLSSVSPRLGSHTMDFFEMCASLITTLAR
T4 sequence (Q9Y478 whole entry partner): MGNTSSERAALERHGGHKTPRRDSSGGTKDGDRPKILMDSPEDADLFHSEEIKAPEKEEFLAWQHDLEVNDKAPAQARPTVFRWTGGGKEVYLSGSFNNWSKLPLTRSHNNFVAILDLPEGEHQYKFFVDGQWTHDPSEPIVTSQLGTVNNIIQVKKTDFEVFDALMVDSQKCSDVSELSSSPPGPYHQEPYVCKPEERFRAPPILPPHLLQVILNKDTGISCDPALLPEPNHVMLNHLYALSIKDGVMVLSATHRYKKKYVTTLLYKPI
T4 sequence (P54619 whole entry partner): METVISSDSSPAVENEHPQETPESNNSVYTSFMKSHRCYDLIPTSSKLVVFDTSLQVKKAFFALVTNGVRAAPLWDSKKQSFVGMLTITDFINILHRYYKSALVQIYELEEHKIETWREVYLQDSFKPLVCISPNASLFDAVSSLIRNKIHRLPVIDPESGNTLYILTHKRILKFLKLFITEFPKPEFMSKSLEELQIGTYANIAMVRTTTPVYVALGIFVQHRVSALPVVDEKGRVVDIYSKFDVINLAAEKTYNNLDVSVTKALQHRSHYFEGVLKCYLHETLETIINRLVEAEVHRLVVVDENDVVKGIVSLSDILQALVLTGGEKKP

[5] = target: T5, AurC (Homo sapiens, UniProt Q9UQB9); assay type: biochemical; conditions: 1 µmol/L of BTK inhibitor
T5 construct: purchased Carna Biosciences
T5 sequence (Q9UQB9 1-309): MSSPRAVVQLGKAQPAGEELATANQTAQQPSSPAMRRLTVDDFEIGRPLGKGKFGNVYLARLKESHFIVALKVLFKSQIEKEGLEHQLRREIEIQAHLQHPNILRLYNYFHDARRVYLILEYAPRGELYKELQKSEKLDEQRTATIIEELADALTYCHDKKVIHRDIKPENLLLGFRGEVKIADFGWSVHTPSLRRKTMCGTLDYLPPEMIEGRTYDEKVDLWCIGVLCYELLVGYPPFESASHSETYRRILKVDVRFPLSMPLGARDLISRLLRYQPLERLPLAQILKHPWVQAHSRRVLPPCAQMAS

[6] = target: T6, CaMK1δ (Homo sapiens, UniProt Q8IU85); assay type: biochemical; conditions: 1 µmol/L of BTK inhibitor
T6 construct: purchased Carna Biosciences
T6 sequence (Q8IU85 whole entry): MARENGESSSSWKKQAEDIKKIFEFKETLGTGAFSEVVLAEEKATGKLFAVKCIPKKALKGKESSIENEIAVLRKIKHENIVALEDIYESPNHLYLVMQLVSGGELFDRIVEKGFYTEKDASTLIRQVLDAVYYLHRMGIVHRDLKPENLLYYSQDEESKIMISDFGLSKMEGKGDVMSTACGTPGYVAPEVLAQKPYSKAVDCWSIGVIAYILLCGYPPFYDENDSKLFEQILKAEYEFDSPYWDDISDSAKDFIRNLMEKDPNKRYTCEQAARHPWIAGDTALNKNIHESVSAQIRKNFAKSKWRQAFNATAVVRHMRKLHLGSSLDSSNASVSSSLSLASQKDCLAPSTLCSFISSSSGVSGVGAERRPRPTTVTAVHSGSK

[7] = target: T7, CK2α1/β (Homo sapiens, UniProt P68400); assay type: biochemical; conditions: 1 µmol/L of BTK inhibitor
T7 construct: purchased Carna Biosciences
T7 sequence (P68400 whole entry): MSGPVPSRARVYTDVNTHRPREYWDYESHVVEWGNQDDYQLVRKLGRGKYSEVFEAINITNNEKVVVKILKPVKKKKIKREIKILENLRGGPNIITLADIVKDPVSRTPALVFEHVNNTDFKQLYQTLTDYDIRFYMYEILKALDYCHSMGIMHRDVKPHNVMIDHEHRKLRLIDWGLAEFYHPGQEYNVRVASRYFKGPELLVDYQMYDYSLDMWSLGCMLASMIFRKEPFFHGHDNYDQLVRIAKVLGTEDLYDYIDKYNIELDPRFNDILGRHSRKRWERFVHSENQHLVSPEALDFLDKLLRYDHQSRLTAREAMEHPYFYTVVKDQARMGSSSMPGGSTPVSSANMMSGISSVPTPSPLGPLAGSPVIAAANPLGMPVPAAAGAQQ
T7 sequence (P67870 whole entry partner): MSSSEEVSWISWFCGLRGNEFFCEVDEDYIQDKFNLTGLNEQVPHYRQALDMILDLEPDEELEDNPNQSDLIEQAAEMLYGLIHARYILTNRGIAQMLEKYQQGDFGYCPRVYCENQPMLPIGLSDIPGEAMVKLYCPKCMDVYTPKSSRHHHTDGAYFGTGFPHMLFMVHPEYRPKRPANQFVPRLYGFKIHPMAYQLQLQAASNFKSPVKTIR

[8] = target: T8, IRAK4 (Homo sapiens, UniProt Q9NWZ3); assay type: biochemical; conditions: 1 µmol/L of BTK inhibitor
T8 construct: purchased Carna Biosciences
T8 sequence (Q9NWZ3 1-460): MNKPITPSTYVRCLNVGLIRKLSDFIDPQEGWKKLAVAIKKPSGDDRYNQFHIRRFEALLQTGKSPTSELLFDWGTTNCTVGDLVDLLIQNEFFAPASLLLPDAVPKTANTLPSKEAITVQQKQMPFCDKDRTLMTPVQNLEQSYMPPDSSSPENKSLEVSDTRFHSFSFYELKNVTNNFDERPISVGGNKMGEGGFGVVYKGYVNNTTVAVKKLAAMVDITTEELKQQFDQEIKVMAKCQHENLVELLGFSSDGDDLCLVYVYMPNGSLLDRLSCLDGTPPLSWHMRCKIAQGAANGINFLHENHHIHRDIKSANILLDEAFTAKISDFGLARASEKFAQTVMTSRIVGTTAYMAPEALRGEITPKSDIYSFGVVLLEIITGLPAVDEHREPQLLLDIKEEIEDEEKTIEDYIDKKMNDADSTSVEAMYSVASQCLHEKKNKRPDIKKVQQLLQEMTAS

[9] = target: Aurora B (Homo sapiens, UniProt Q96GD4); conditions: for Percentage inhibition of kinase enzyme activity: AurB, 1 µmol/L of BTK inhibitor
Chain of Aurora B (Q96GD4 whole entry): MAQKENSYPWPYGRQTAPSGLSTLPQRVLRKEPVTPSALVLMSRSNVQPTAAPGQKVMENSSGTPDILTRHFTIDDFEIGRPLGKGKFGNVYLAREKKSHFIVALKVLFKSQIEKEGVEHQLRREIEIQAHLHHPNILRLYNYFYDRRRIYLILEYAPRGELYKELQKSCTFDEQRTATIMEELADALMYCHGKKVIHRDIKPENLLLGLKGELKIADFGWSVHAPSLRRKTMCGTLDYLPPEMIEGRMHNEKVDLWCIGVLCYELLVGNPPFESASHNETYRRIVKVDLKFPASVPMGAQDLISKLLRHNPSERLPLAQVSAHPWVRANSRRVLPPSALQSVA
Chain of Aurora B (Q9NQS7 803-916 partner limits assumed): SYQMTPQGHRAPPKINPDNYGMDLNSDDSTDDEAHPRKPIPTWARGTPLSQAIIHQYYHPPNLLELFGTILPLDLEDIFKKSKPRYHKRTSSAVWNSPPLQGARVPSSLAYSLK

CC#CC(=O)N1CCC[C@H]1c1nc(-c2ccc(C(=O)Nc3ccccn3)cc2)c2c(N)nccn12 [acalabrutinib]
Percentage inhibition of kinase enzyme activity [1]: 1.64% | Percentage inhibition of kinase enzyme activity [2]: -1.53% | Percentage inhibition of kinase enzyme activity [3]: -2.69% | Percentage inhibition of kinase enzyme activity [4]: 3.50% | Percentage inhibition of kinase enzyme activity [5]: 7.21% | Percentage inhibition of kinase enzyme activity [6]: -5.01% | Percentage inhibition of kinase enzyme activity [7]: 5.34% | Percentage inhibition of kinase enzyme activity [8]: -6.55% | Percentage inhibition of kinase enzyme activity [9]: 10.86%

C=CC(=O)N1CCC[C@@H](n2nc(-c3ccc(Oc4ccccc4)cc3)c3c(N)ncnc32)C1 [ibrutinib]
Percentage inhibition of kinase enzyme activity [1]: 2.93% | Percentage inhibition of kinase enzyme activity [2]: -4.51% | Percentage inhibition of kinase enzyme activity [3]: -3.12% | Percentage inhibition of kinase enzyme activity [4]: 10.21% | Percentage inhibition of kinase enzyme activity [5]: 6.95% | Percentage inhibition of kinase enzyme activity [6]: 4.85% | Percentage inhibition of kinase enzyme activity [7]: -11.11% | Percentage inhibition of kinase enzyme activity [8]: -5.09% | Percentage inhibition of kinase enzyme activity [9]: -1.10%

O=C(c1ccc(Oc2ccccc2)cc1Cl)c1c[nH]c2ncnc(N[C@@H]3CC[C@@H](CO)OC3)c12 [nemtabrutinib]
Percentage inhibition of kinase enzyme activity [1]: 73.92% | Percentage inhibition of kinase enzyme activity [2]: 8.61% | Percentage inhibition of kinase enzyme activity [3]: 4.40% | Percentage inhibition of kinase enzyme activity [4]: 40.46% | Percentage inhibition of kinase enzyme activity [5]: 65.10% | Percentage inhibition of kinase enzyme activity [6]: 9.32% | Percentage inhibition of kinase enzyme activity [7]: -2.75% | Percentage inhibition of kinase enzyme activity [8]: 2.38% | Percentage inhibition of kinase enzyme activity [9]: 57.52%

COc1ccc(F)cc1C(=O)NCc1ccc(-c2nn([C@@H](C)C(F)(F)F)c(N)c2C(N)=O)cc1 [pirtobrutinib]
Percentage inhibition of kinase enzyme activity [1]: 34.88% | Percentage inhibition of kinase enzyme activity [2]: -3.75% | Percentage inhibition of kinase enzyme activity [3]: -4.63% | Percentage inhibition of kinase enzyme activity [4]: 6.23% | Percentage inhibition of kinase enzyme activity [5]: 39.97% | Percentage inhibition of kinase enzyme activity [6]: 2.74% | Percentage inhibition of kinase enzyme activity [7]: -1.74% | Percentage inhibition of kinase enzyme activity [8]: -1.11% | Percentage inhibition of kinase enzyme activity [9]: 88.69% | inhibition at 1 µM ([9]; read-out: Inhibition of Aurora B): > 75%

C=CC(=O)N1CCC([C@@H]2CCNc3c(C(N)=O)c(-c4ccc(Oc5ccccc5)cc4)nn32)CC1 [zanubrutinib]
Percentage inhibition of kinase enzyme activity [1]: -2.82% | Percentage inhibition of kinase enzyme activity [5]: -0.85%
